Experimental data taken from the supplement of paper PMC13380429.

How the values were obtained:
Conditions in all cases: 72 h
Caco-2 [1] = assay: cell viability relative to DMSO; higher = less toxic
HepG2 [2] = assay: as above
U2OS [3] = assay: as above
Vero E6 [4] = assay: as above
Caco-2 [5] = assay: relative viability EC50 (midpoint between 100% and the lowest measured viability); higher = less toxic
HepG2 [6] = assay: as above
U2OS [7] = assay: as above
Vero E6 [8] = assay: as above
Caco-2 [9] = assay: drug sensitivity score (DSS) for viability; higher = more toxic; extreme values may be limits of the assay
HepG2 [10] = assay: as above
U2OS [11] = assay: as above
Vero E6 [12] = assay: as above
Calu-3 [13] = assay: cell viability relative to DMSO; higher = less toxic
Calu-3 [14] = assay: relative viability EC50 (midpoint between 100% and the lowest measured viability); higher = less toxic
Calu-3 [15] = assay: drug sensitivity score (DSS) for viability; higher = more toxic; extreme values may be limits of the assay

| SMILES | cell viability (Caco-2 [1]; 1 nM) [%] | cell viability (Caco-2 [1]; 10 nM) [%] | cell viability (Caco-2 [1]; 100 nM) [%] | cell viability (Caco-2 [1]; 1000 nM) [%] | cell viability (Caco-2 [1]; 10000 nM) [%] | cell viability (HepG2 [2]; 1 nM) [%] | cell viability (HepG2 [2]; 10 nM) [%] | cell viability (HepG2 [2]; 100 nM) [%] | cell viability (HepG2 [2]; 1000 nM) [%] | cell viability (HepG2 [2]; 10000 nM) [%] | cell viability (U2OS [3]; 1 nM) [%] | cell viability (U2OS [3]; 10 nM) [%] | cell viability (U2OS [3]; 100 nM) [%] | cell viability (U2OS [3]; 1000 nM) [%] | cell viability (U2OS [3]; 10000 nM) [%] | cell viability (Vero E6 [4]; 1 nM) [%] | cell viability (Vero E6 [4]; 10 nM) [%] | cell viability (Vero E6 [4]; 100 nM) [%] | cell viability (Vero E6 [4]; 1000 nM) [%] | cell viability (Vero E6 [4]; 10000 nM) [%] | relative viability EC50 (Caco-2 [5]) [µM] | relative viability EC50 (HepG2 [6]) [µM] | relative viability EC50 (U2OS [7]) [µM] | relative viability EC50 (Vero E6 [8]) [µM] | drug sensitivity score (Caco-2 [9]) | drug sensitivity score (HepG2 [10]) | drug sensitivity score (U2OS [11]) | drug sensitivity score (Vero E6 [12]) | cell viability (Calu-3 [13]; 1 nM) [%] | cell viability (Calu-3 [13]; 10 nM) [%] | cell viability (Calu-3 [13]; 100 nM) [%] | cell viability (Calu-3 [13]; 1000 nM) [%] | cell viability (Calu-3 [13]; 10000 nM) [%] | relative viability EC50 (Calu-3 [14]) [µM] | drug sensitivity score (Calu-3 [15]) |
| --- | --- | --- | --- | --- | --- | --- | --- | --- | --- | --- | --- | --- | --- | --- | --- | --- | --- | --- | --- | --- | --- | --- | --- | --- | --- | --- | --- | --- | --- | --- | --- | --- | --- | --- | --- |
| Cn1c(-c2ccccc2)nnc1S(C)(=O)=O | 93 | 85.8 | 103 | 103 | 103 | 97.4 | 99.1 | 99.1 | 93.9 | 94.5 | 99.4 | 96.9 | 96.4 | 99.3 | 103 | 89.6 | 92.9 | 99.3 | 94.9 | 105 | > 10 | > 10 | > 10 | > 10 | 0 | 0 | 0 | 0 | – | – | – | – | – | – | – |
| Nc1nc2c(ncn2COCCO)c(=O)[nH]1 [acyclovir] | – | – | – | – | – | 96.3 | 92 | 95.1 | 94.7 | 96.3 | 91.6 | 101 | 94.7 | 99.7 | 104 | 110 | 92.7 | 98.3 | 98 | 101 | – | > 10 | > 10 | > 10 | – | 0 | 0 | 0 | 95.3 | 101 | 102 | 106 | 119 | > 10 | 0 |
| CCCOc1ccc(S(=O)(=O)N2CCN(CCO)CC2)cc1-c1nc2c(CCC)cn(CC)c2c(=O)[nH]1 [mirodenafil] | 105 | 111 | 96.5 | 107 | 85.6 | 105 | 98.1 | 108 | 100 | 99.7 | 102 | 104 | 99.6 | 103 | 96.3 | 100 | 101 | 101 | 94.9 | 102 | > 10 | > 10 | > 10 | > 10 | 0.1 | 0 | 0 | 0 | – | – | – | – | – | – | – |
| N[C@@H]1[C@H]2CN(c3nc4c(cc3F)c(=O)c(C(=O)O)cn4-c3ccc(F)cc3F)C[C@@H]12 [trovafloxacin] | 95.6 | 122 | 84.7 | 85.5 | 71.5 | 115 | 104 | 102 | 106 | 29.9 | 101 | 108 | 99.8 | 105 | 89.9 | 95.7 | 98.8 | 102 | 110 | 98.2 | – | 3.6 | > 10 | > 10 | 3.1 | 3.4 | 0 | 0 | 102 | 103 | 92.4 | 97.6 | 64.1 | – | 2.1 |
| NC(=O)NC1NC(=O)NC1=O (centres undefined) [allantoin] | 102 | 109 | 96.3 | 100 | 93.5 | 114 | 107 | 104 | 99.9 | 95.5 | 99 | 102 | 99.5 | 103 | 97.8 | 108 | 98.5 | 103 | 102 | 102 | > 10 | > 10 | > 10 | > 10 | 0 | 0 | 0 | 0 | – | – | – | – | – | – | – |
| Nc1nc(Cl)nc2c1ncn2[C@@H]1O[C@H](CO)[C@@H](O)[C@H]1O [2-chloroadenosine] | – | – | – | – | – | 99.9 | 101 | 104 | 104 | 81.8 | 101 | 96.1 | 102 | 107 | 101 | 93.4 | 102 | 103 | 102 | 93.7 | – | > 10 | > 10 | > 10 | – | 0.3 | 0 | 0 | 110 | 103 | 98.8 | 113 | 84.5 | > 10 | 0.1 |
| O=C(Cn1ccnc1[N+](=O)[O-])NCc1ccccc1 [benznidazole] | 98 | 98.8 | 96.4 | 93.2 | 96 | 97.3 | 95.9 | 93.7 | 94.4 | 94.2 | 98 | 97.3 | 92.4 | 90 | 99.8 | 97.3 | 98.5 | 96.4 | 101 | 98.1 | > 10 | > 10 | > 10 | > 10 | 0 | 0 | 0 | 0 | – | – | – | – | – | – | – |
| O=C(Nc1ccc(S(=O)(=O)C(F)(F)F)cc1)C1=CCN(c2ncccc2C(F)(F)F)CC1 | 97.3 | 98.4 | 90.7 | 97.4 | 62.4 | 107 | 87.9 | 104 | 96.2 | 38.6 | 96.1 | 101 | 93.2 | 101 | 84.9 | 99.6 | 91.7 | 91.3 | 88.9 | 94.7 | – | 2.67 | > 10 | > 10 | 2.2 | 3.9 | 0.2 | 0.7 | 96.2 | 106 | 99.6 | 101 | 79.9 | > 10 | 0.5 |
| OC[C@H]1O[C@@H](Oc2ccc(O)cc2)[C@H](O)[C@@H](O)[C@@H]1O [arbutin] | 95.7 | 101 | 105 | 96 | 103 | 99.2 | 109 | 98.6 | 105 | 103 | 97.9 | 102 | 102 | 97.5 | 108 | 98.6 | 98 | 91.6 | 94.6 | 94.5 | > 10 | > 10 | > 10 | > 10 | 0 | 0 | 0 | 0 | – | – | – | – | – | – | – |
| CCCCC(=O)NCCc1c(Cc2ccccc2)[nH]c2ccccc12 [DH-97] | 102 | 101 | 96.8 | 92.3 | 96 | 90.8 | 100 | 100 | 105 | 103 | 100 | 94.7 | 99.9 | 95.1 | 96.7 | 102 | 98.7 | 99.8 | 97 | 93.8 | > 10 | > 10 | > 10 | > 10 | 0 | 0 | 0 | 0 | – | – | – | – | – | – | – |
| O=C(O)CN1C(=O)c2cccc3cccc(c23)C1=O [alrestatin] | 99 | 95.2 | 101 | 96.7 | 107 | 95.4 | 102 | 90.7 | 98 | 101 | 98.9 | 96.6 | 96.1 | 102 | 105 | 94.8 | 102 | 105 | 96.6 | 101 | > 10 | > 10 | > 10 | > 10 | 0 | 0 | 0 | 0 | – | – | – | – | – | – | – |
| Oc1cc(O)c2cc(O)c(-c3cc(O)c(O)c(O)c3)[o+]c2c1 [delphinidin] | 101 | 95.5 | 90.8 | 94.6 | 83.4 | 104 | 102 | 103 | 114 | 96.5 | 103 | 104 | 98.1 | 102 | 99.2 | 100 | 98.8 | 98.3 | 92.7 | 97.9 | > 10 | > 10 | > 10 | > 10 | 0.5 | 0 | 0 | 0 | – | – | – | – | – | – | – |
| C[N+]12CCC(CC1)C(OC(=O)C(O)(c1ccccc1)c1ccccc1)C2 (centres undefined) [clidinium] | 102 | 112 | 106 | 95.4 | 103 | 92.5 | 108 | 90.6 | 104 | 99.7 | – | – | – | – | – | 102 | 102 | 101 | 102 | 99.8 | > 10 | > 10 | – | > 10 | 0 | 0 | – | 0 | – | – | – | – | – | – | – |
| O=C1C[C@@H](c2ccc(O)cc2)Oc2cc(O)ccc21 [MF-101] | 81.1 | 99.7 | 92.3 | 103 | 78.1 | 95.8 | 93.7 | 103 | 97.6 | 90.4 | 98.4 | 95.4 | 96.4 | 99.7 | 95.9 | 101 | 102 | 95.3 | 92.1 | 99.8 | – | > 10 | > 10 | > 10 | 0.4 | 0 | 0 | 0 | 103 | 112 | 106 | 104 | 99.4 | > 10 | 0 |
| CC[C@H]1OC(=O)C[C@@H](O)[C@H](C)[C@@H](O[C@@H]2O[C@H](C)C[C@H](N(C)C)[C@H]2O)[C@@H](CC=O)C[C@@H](C)C(=O)/C=C/[C@]2(C)O[C@H]2[C@@H]1C [rosamicin] | 94.6 | 102 | 101 | 100 | 71.5 | 87 | 106 | 98.4 | 103 | 28.9 | 100 | 94.2 | 98.8 | 99.4 | 37.1 | 94.7 | 102 | 92.9 | 97 | 90.9 | – | 3.41 | 3.09 | > 10 | 1.2 | 3.7 | 3.5 | 0 | 101 | 84.5 | 101 | 107 | 87.2 | > 10 | 0 |
| Nc1c2ccccc2nc2ccccc12 [9-aminoacridine] | 103 | 115 | 96.2 | 134 | 60.5 | 93.5 | 96.5 | 99.8 | 88.1 | 5.5 | 94.6 | 98 | 95 | 99.8 | 34.9 | 106 | 104 | 108 | 86.5 | 20.3 | – | 2.14 | 3.14 | 1.89 | 1.1 | 7.2 | 3.6 | 6.6 | 94.4 | 92.4 | 105 | 110 | 64.6 | – | 1.2 |
